The NIST ThermoML archive (doi:10.1016/j.jct.2016.10.031)

Assay: molar heat capacity at constant pressure
Details: 101.33 kPa, Small (less than 1 g) adiabatic calorimetry

CC(C)(C)c1ccc(Oc2ccc([N+](=O)[O-])cc2)cc1 [1-(tert-butyl)-4-(4-nitrophenoxy)benzene]
Details	molar heat capacity at constant pressure [J/K/mol]
5 K, Crystal	1.355
7.47 K, Crystal	4.099
7.73 K, Crystal	4.357
7.99 K, Crystal	4.806
8.25 K, Crystal	4.93
8.5 K, Crystal	5.379
8.76 K, Crystal	5.679
9 K, Crystal	6.111
9.25 K, Crystal	6.543
9.5 K, Crystal	6.718
9.74 K, Crystal	6.934
9.98 K, Crystal	7.616
10 K, Crystal	7.483
10.29 K, Crystal	7.94
10.67 K, Crystal	8.647
11.05 K, Crystal	9.237
11.43 K, Crystal	9.903
11.82 K, Crystal	10.72
12.19 K, Crystal	11.55
12.56 K, Crystal	12.15
12.94 K, Crystal	12.7
13.31 K, Crystal	13.57
13.67 K, Crystal	14.33
14.04 K, Crystal	15.21
14.41 K, Crystal	15.49
14.78 K, Crystal	16.59
15 K, Crystal	16.88
15.14 K, Crystal	17.38
15.51 K, Crystal	17.73
15.87 K, Crystal	18.62
16.23 K, Crystal	19.3
16.59 K, Crystal	20.01
16.95 K, Crystal	20.59
17.31 K, Crystal	21.22
17.67 K, Crystal	21.96
18.02 K, Crystal	23.17
18.38 K, Crystal	23.47
18.74 K, Crystal	23.92
19.09 K, Crystal	24.86
19.44 K, Crystal	25.53
19.8 K, Crystal	26.14
20 K, Crystal	26.69
20.15 K, Crystal	27.16
20.82 K, Crystal	28.34
21.6 K, Crystal	29.77
22.37 K, Crystal	31.32
23.15 K, Crystal	32.68
23.93 K, Crystal	34.2
24.7 K, Crystal	35.79
25 K, Crystal	36.33
25.47 K, Crystal	37.61
26.25 K, Crystal	38.45
27.02 K, Crystal	40.22
27.78 K, Crystal	41.32
28.55 K, Crystal	43.04
29.31 K, Crystal	44.42
30 K, Crystal	45.73
30.07 K, Crystal	45.76
30.84 K, Crystal	47.58
31.6 K, Crystal	48.75
32.37 K, Crystal	49.72
33.14 K, Crystal	51.08
33.9 K, Crystal	52.67
34.66 K, Crystal	54.05
35 K, Crystal	54.54
35.42 K, Crystal	55.3
36.18 K, Crystal	57.11
36.94 K, Crystal	57.85
37.7 K, Crystal	58.97
38.45 K, Crystal	60.6
39.21 K, Crystal	61.49
39.97 K, Crystal	62.88
40 K, Crystal	63.11
40.73 K, Crystal	64.39
41.49 K, Crystal	65.82
42.25 K, Crystal	66.47
43.01 K, Crystal	68.18
43.76 K, Crystal	69.21
44.52 K, Crystal	70.63
45 K, Crystal	71.17
45.29 K, Crystal	71.91
46.05 K, Crystal	72.64
46.81 K, Crystal	73.61
47.56 K, Crystal	75.02
48.32 K, Crystal	75.74
49.08 K, Crystal	77.04
49.84 K, Crystal	77.52
50 K, Crystal	77.91
50.59 K, Crystal	79.05
51.35 K, Crystal	79.22
52.11 K, Crystal	79.8
52.86 K, Crystal	81.65
53.62 K, Crystal	82.43
54.38 K, Crystal	83.39
55.13 K, Crystal	84.31
55.89 K, Crystal	84.81
56.64 K, Crystal	85.14
57.4 K, Crystal	86.3
58.15 K, Crystal	87.8
58.9 K, Crystal	88.13
59.65 K, Crystal	89.46
60 K, Crystal	89.55
60.41 K, Crystal	89.8
61.16 K, Crystal	91.13
61.91 K, Crystal	92.37
62.66 K, Crystal	92.46
63.41 K, Crystal	94.04
64.16 K, Crystal	94.87
64.91 K, Crystal	94.78
65.66 K, Crystal	96.12
66.41 K, Crystal	96.12
67.16 K, Crystal	97.94
67.91 K, Crystal	97.94
68.65 K, Crystal	99.44
69.4 K, Crystal	100.27
70 K, Crystal	101.19
70.15 K, Crystal	102.77
71.05 K, Crystal	102.93
72.11 K, Crystal	103.85
73.17 K, Crystal	104.93
74.23 K, Crystal	106.18
75.29 K, Crystal	108.42
76.35 K, Crystal	108.75
77.41 K, Crystal	110.08
78.47 K, Crystal	112
79.3 K, Crystal	112.16
79.53 K, Crystal	113.49
79.87 K, Glass	115.9
80 K, Crystal	113.16
80.1 K, Crystal	112.83
80.58 K, Crystal	114.66
80.67 K, Glass	116.65
80.9 K, Crystal	113.82
81.47 K, Glass	117.4
81.64 K, Crystal	116.15
81.71 K, Crystal	114.66
82.27 K, Glass	118.31
82.51 K, Crystal	115.4
82.7 K, Crystal	116.82
83.08 K, Glass	119.23
83.31 K, Crystal	116.49
83.75 K, Crystal	117.48
83.88 K, Glass	120.06
84.11 K, Crystal	117.32
84.68 K, Glass	120.98
84.92 K, Crystal	118.07
85.48 K, Glass	121.97
85.72 K, Crystal	119.06
86.29 K, Glass	122.89
86.52 K, Crystal	119.98
87.09 K, Glass	123.8
87.32 K, Crystal	120.81
87.89 K, Glass	124.55
